Experimental data reported in US20240238242A1, “EGCG buccal tablet and use thereof” (priority 2023, published 2024).
In brackets after ≈: the same amount, converted by molar mass. Read-outs that look alike come from different tables or passages of the source.

How the values were obtained:
[1] = tested on: Novel enterovirus D68 (EV-D68); type: cell-based; conditions: for CPE test (virus replication in cell wells) / CPE test (virus replication in the cell wells): wells 1-10; for average inactivation efficiency against virus / inactivation efficiency against the virus: EV-D68 virus; for average inactivation efficiency against virus: three experiments; for CPE test per cell well: first experiment; for inactivation efficiency against the virus: single experiment
[2] = tested on: Helicobacter pylori (Hp) strain B5-3; assay: In vitro bactericidal concentration (MBC) against Helicobacter pylori, broth dilution and plate counting; conditions: for Bactericidal rate % / Concentration CFU/mL / Average number of colonies: shake flask about 24 hours; for Average number of colonies: dilution factor 10^−4

## O=C(O[C@@H]1Cc2c(O)cc(O)cc2O[C@@H]1c1cc(O)c(O)c(O)c1)c1cc(O)c(O)c(O)c1 [EGCG, Epigallocatechin gallate]
[1]; 1 mM EGCG + virus, 1 minute, dilution factor 10^7, second experiment
  CPE test (virus replication in cell wells): − and +
[1]; 1 mM EGCG + virus, 1 minute, dilution factor 10^7, third experiment
  CPE test (virus replication in cell wells): − and +
[1]; 1 mM EGCG + virus, 1 minute, dilution factor 10^8, second experiment
  CPE test (virus replication in cell wells): −
[1]; 1 mM EGCG + virus, 1 minute, dilution factor 10^8, third experiment
  CPE test (virus replication in cell wells): −
[1]; 1 mM EGCG + virus, co-incubated 5 minute, dilution factor 10^1, first experiment
  CPE test (virus replication in the cell wells): +
[1]; 1 mM EGCG + virus, co-incubated 5 minute, dilution factor 10^1, second experiment
  CPE test (virus replication in the cell wells): +
[1]; 1 mM EGCG + virus, co-incubated 5 minute, dilution factor 10^2, first experiment
  CPE test (virus replication in the cell wells): +
[1]; 1 mM EGCG + virus, co-incubated 5 minute, dilution factor 10^2, second experiment
  CPE test (virus replication in the cell wells): +
[1]; 1 mM EGCG + virus, co-incubated 5 minute, dilution factor 10^3, first experiment
  CPE test (virus replication in the cell wells): +
[1]; 1 mM EGCG + virus, co-incubated 5 minute, dilution factor 10^3, second experiment
  CPE test (virus replication in the cell wells): +
[1]; 1 mM EGCG + virus, co-incubated 5 minute, dilution factor 10^4, first experiment
  CPE test (virus replication in the cell wells): +
[1]; 1 mM EGCG + virus, co-incubated 5 minute, dilution factor 10^4, second experiment
  CPE test (virus replication in the cell wells): +
[1]; 1 mM EGCG + virus, co-incubated 5 minute, dilution factor 10^5, first experiment
  CPE test (virus replication in the cell wells): +
[1]; 1 mM EGCG + virus, co-incubated 5 minute, dilution factor 10^5, second experiment
  CPE test (virus replication in the cell wells): +
[1]; 1 mM EGCG + virus, co-incubated 5 minute, dilution factor 10^6, first experiment
  CPE test (virus replication in the cell wells): + and −
[1]; 1 mM EGCG + virus, co-incubated 5 minute, dilution factor 10^6, second experiment
  CPE test (virus replication in the cell wells): + and −
[1]; 1 mM EGCG + virus, co-incubated 5 minute, dilution factor 10^7, first experiment
  CPE test (virus replication in the cell wells): −
[1]; 1 mM EGCG + virus, co-incubated 5 minute, dilution factor 10^7, second experiment
  CPE test (virus replication in the cell wells): −
[1]; 1 mM EGCG + virus, co-incubated 5 minute, dilution factor 10^8, first experiment
  CPE test (virus replication in the cell wells): −
[1]; 1 mM EGCG + virus, co-incubated 5 minute, dilution factor 10^8, second experiment
  CPE test (virus replication in the cell wells): −
[1]; 1 mM EGCG, 1 minute
  average inactivation efficiency against virus: 41.23%
[1]; 1 mM EGCG, 5 minutes
  average inactivation efficiency against virus: 35.78%
[1]; 5 mM EGCG + EV-D68 virus, 1 minute, dilution factor 10^2, wells 1-10
  CPE test per cell well: +
[1]; 5 mM EGCG + EV-D68 virus, 1 minute, dilution factor 10^3, wells 1-10
  CPE test per cell well: +
[1]; 5 mM EGCG + EV-D68 virus, 1 minute, dilution factor 10^4, wells 1-10
  CPE test per cell well: +
[1]; 5 mM EGCG + EV-D68 virus, 1 minute, dilution factor 10^5, wells 1-10
  CPE test per cell well: +
[1]; 5 mM EGCG + EV-D68 virus, 1 minute, dilution factor 10^6, wells 1-10
  CPE test per cell well: − and +
[1]; 5 mM EGCG + EV-D68 virus, 1 minute, dilution factor 10^7, wells 1-10
  CPE test per cell well: − and +
[1]; 5 mM EGCG + EV-D68 virus, 1 minute, dilution factor 10^8, wells 1-10
  CPE test per cell well: −
[1]; 5 mM EGCG + EV-D68 virus, co-incubated 5 minute, third experiment, dilution factor 10^2
  CPE test (virus replication in cell wells): +
[1]; 5 mM EGCG + EV-D68 virus, co-incubated 5 minute, third experiment, dilution factor 10^3
  CPE test (virus replication in cell wells): +
[1]; 5 mM EGCG + EV-D68 virus, co-incubated 5 minute, third experiment, dilution factor 10^4
  CPE test (virus replication in cell wells): +
[1]; 5 mM EGCG + EV-D68 virus, co-incubated 5 minute, third experiment, dilution factor 10^5
  CPE test (virus replication in cell wells): +
[1]; 5 mM EGCG + EV-D68 virus, co-incubated 5 minute, third experiment, dilution factor 10^6
  CPE test (virus replication in cell wells): − and +
[1]; 5 mM EGCG + EV-D68 virus, co-incubated 5 minute, third experiment, dilution factor 10^7
  CPE test (virus replication in cell wells): −
[1]; 5 mM EGCG + EV-D68 virus, co-incubated 5 minute, third experiment, dilution factor 10^8
  CPE test (virus replication in cell wells): −
[1]; 5 mM EGCG + virus, 1 minute, dilution factor 10^1, third experiment
  CPE test (virus replication in cell wells): +
[1]; 5 mM EGCG + virus, 1 minute, dilution factor 10^2, second experiment
  CPE test (virus replication in cell wells): +
[1]; 5 mM EGCG + virus, 1 minute, dilution factor 10^2, third experiment
  CPE test (virus replication in cell wells): +
[1]; 5 mM EGCG + virus, 1 minute, dilution factor 10^3, second experiment
  CPE test (virus replication in cell wells): +
[1]; 5 mM EGCG + virus, 1 minute, dilution factor 10^3, third experiment
  CPE test (virus replication in cell wells): +
[1]; 5 mM EGCG + virus, 1 minute, dilution factor 10^4, second experiment
  CPE test (virus replication in cell wells): +
[1]; 5 mM EGCG + virus, 1 minute, dilution factor 10^4, third experiment
  CPE test (virus replication in cell wells): +
[1]; 5 mM EGCG + virus, 1 minute, dilution factor 10^5, second experiment
  CPE test (virus replication in cell wells): +
[1]; 5 mM EGCG + virus, 1 minute, dilution factor 10^5, third experiment
  CPE test (virus replication in cell wells): +
[1]; 5 mM EGCG + virus, 1 minute, dilution factor 10^6, second experiment
  CPE test (virus replication in cell wells): + and −
[1]; 5 mM EGCG + virus, 1 minute, dilution factor 10^6, third experiment
  CPE test (virus replication in cell wells): + and −
[1]; 5 mM EGCG + virus, 1 minute, dilution factor 10^7, second experiment
  CPE test (virus replication in cell wells): −
[1]; 5 mM EGCG + virus, 1 minute, dilution factor 10^7, third experiment
  CPE test (virus replication in cell wells): − and +
[1]; 5 mM EGCG + virus, 1 minute, dilution factor 10^8, second experiment
  CPE test (virus replication in cell wells): −
[1]; 5 mM EGCG + virus, 1 minute, dilution factor 10^8, third experiment
  CPE test (virus replication in cell wells): −
[1]; 5 mM EGCG + virus, co-incubated 5 minute, dilution factor 10^2, first experiment
  CPE test (virus replication in the cell wells): +
[1]; 5 mM EGCG + virus, co-incubated 5 minute, dilution factor 10^2, second experiment
  CPE test (virus replication in the cell wells): +
[1]; 5 mM EGCG + virus, co-incubated 5 minute, dilution factor 10^3, first experiment
  CPE test (virus replication in the cell wells): +
[1]; 5 mM EGCG + virus, co-incubated 5 minute, dilution factor 10^3, second experiment
  CPE test (virus replication in the cell wells): +
[1]; 5 mM EGCG + virus, co-incubated 5 minute, dilution factor 10^4, first experiment
  CPE test (virus replication in the cell wells): +
[1]; 5 mM EGCG + virus, co-incubated 5 minute, dilution factor 10^4, second experiment
  CPE test (virus replication in the cell wells): +
[1]; 5 mM EGCG + virus, co-incubated 5 minute, dilution factor 10^5, first experiment
  CPE test (virus replication in the cell wells): +
[1]; 5 mM EGCG + virus, co-incubated 5 minute, dilution factor 10^5, second experiment
  CPE test (virus replication in the cell wells): +
[1]; 5 mM EGCG + virus, co-incubated 5 minute, dilution factor 10^6, first experiment
  CPE test (virus replication in the cell wells): − and +
[1]; 5 mM EGCG + virus, co-incubated 5 minute, dilution factor 10^6, second experiment
  CPE test (virus replication in the cell wells): + and −
[1]; 5 mM EGCG + virus, co-incubated 5 minute, dilution factor 10^7, first experiment
  CPE test (virus replication in the cell wells): −
[1]; 5 mM EGCG + virus, co-incubated 5 minute, dilution factor 10^7, second experiment
  CPE test (virus replication in the cell wells): −
[1]; 5 mM EGCG + virus, co-incubated 5 minute, dilution factor 10^8, first experiment
  CPE test (virus replication in the cell wells): −
[1]; 5 mM EGCG + virus, co-incubated 5 minute, dilution factor 10^8, second experiment
  CPE test (virus replication in the cell wells): −
[1]; 5 mM EGCG, 1 minute
  inactivation efficiency against the virus: 80.05%
  average inactivation efficiency against virus: 66.10%
[1]; 5 mM EGCG, 5 minutes
  inactivation efficiency against the virus: 74.88%
  average inactivation efficiency against virus: 66.55%
[2]; EGCG 100 μM
  Bactericidal rate %: 98.8%
  Concentration CFU/mL: 1.4 × 10^7 CFU/mL
  Average number of colonies: 142
[2]; EGCG 200 μM
  Bactericidal rate %: >99.9%
  Concentration CFU/mL: 3.5 × 10^6 CFU/mL
  Average number of colonies: 35
[2]; EGCG 400 μM
  Bactericidal rate %: >99.9%
  Concentration CFU/mL: 2.2 × 10^6 CFU/mL
  Average number of colonies: 22
[2]; Helicobacter pylori, 24 h, read-out: minimum bactericidal concentration (MBC)
  MBC: 200 µM (≈ 91.7 µg/mL)
[2]; shake flask culture, lowest concentration of 100 μM
  Hp inactivated: about 98.9%
